Reference: PubChem BioAssay (NCI)
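Cultured in 96-well plates, cells were exposed to test compound for 48 hours across five concentrations. Abbreviation: GI50, concentration required for 50% inhibition of growth. TGI: concentration producing complete growth inhibition.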

Key:
Experiment in all cases: NCI anticancer screen, dose series, 48 h
SK-OV-3 ovarian = system: SK-OV-3 ovarian
SNB-75 CNS = system: SNB-75 CNS
LXFL 529 NSCLC = system: LXFL 529 NSCLC
EKVX NSCLC = system: EKVX NSCLC
OVCAR-8 ovarian = system: OVCAR-8 ovarian
HCT-15 colon = system: HCT-15 colon
MDA-N = system: MDA-N
A498 renal = system: A498 renal
LOX IMVI melanoma = system: LOX IMVI melanoma
MCF7 breast = system: MCF7 breast

SMILES	TGI (SK-OV-3 ovarian)	TGI (SNB-75 CNS)	TGI (LXFL 529 NSCLC)	TGI (EKVX NSCLC)	TGI (OVCAR-8 ovarian)	TGI (HCT-15 colon)	TGI (MDA-N)	TGI (A498 renal)	TGI (LOX IMVI melanoma)	GI50 (SK-OV-3 ovarian)	GI50 (SNB-75 CNS)	GI50 (LXFL 529 NSCLC)	GI50 (EKVX NSCLC)	GI50 (OVCAR-8 ovarian)	GI50 (HCT-15 colon)	GI50 (MCF7 breast)	TGI (MCF7 breast)	GI50 (MDA-N)	GI50 (A498 renal)	GI50 (LOX IMVI melanoma)
O=C1C=CC(=O)c2c1cc1ccccc1c2O	34.3 µM	33.2 µM	3.99 µM	22.8 µM	8.96 µM	13.3 µM	18.5 µM	28.8 µM	9.06 µM	–	–	–	–	–	–	–	–	–	–	–
[CH3][Sn]([CH3])([CH3])[O]C(=O)C(O)c1ccccc1 (stereo unspecified)	47.2 µM	54.3 µM	> 28.4 µM	55.7 µM	> 54.9 µM	19.1 µM	15.9 µM	63.9 µM	8.53 µM	10.1 µM	5.61 µM	2.98 µM	5.36 µM	4.65 µM	3.57 µM	> 100 µM	> 100 µM	3.62 µM	13.8 µM	2.85 µM
Cc1nn2c(=O)n(-c3cccc(-n4nnc5c(-c6ccccc6)c(C)nn5c4=O)c3C)nnc2c1-c1ccccc1	> 100 µM	> 100 µM	> 100 µM	> 100 µM	> 100 µM	63.8 µM	–	> 100 µM	> 100 µM	–	–	–	–	–	–	–	–	–	–	–
Cc1ccc(SC2C(C)(C)N(C(C)C)P2(=O)N(C(C)C)C(C)C)cc1 (stereo unspecified)	> 100 µM	> 100 µM	> 100 µM	97.3 µM	> 100 µM	> 100 µM	–	> 100 µM	> 59.9 µM	–	–	–	–	–	–	–	–	–	–	–
CN=c1ss/c(=N\C(=S)N(C)C)n1C1CCCCC1	> 31.6 µM	> 10 µM	> 31.6 µM	> 31.6 µM	> 31.6 µM	> 31.6 µM	–	> 31.6 µM	> 31.6 µM	–	–	–	–	–	–	–	–	–	–	–
CC(=O)n1cc(CC(C)O)c(=O)[nH]c1=O (stereo unspecified)	> 100 µM	> 100 µM	> 100 µM	> 100 µM	> 100 µM	> 100 µM	–	> 100 µM	> 100 µM	–	–	–	–	–	–	–	–	–	–	–
Cc1ccc(S(=O)(=O)Nc2cccc(C)c2C)cc1	> 100 µM	86.8 µM	> 100 µM	> 100 µM	> 100 µM	> 100 µM	–	> 100 µM	> 100 µM	–	–	–	–	–	–	–	–	–	–	–
O=S1c2ccccc2N=C(c2ccc3ccccc3c2)CC1c1ccccc1F (stereo unspecified)	> 100 µM	80.8 µM	> 100 µM	> 100 µM	> 100 µM	> 100 µM	–	79.7 µM	> 100 µM	–	–	–	–	–	–	–	–	–	–	–
NC(=O)c1ccccc1NC(=O)C(=O)Nc1n[nH]c(N)n1	> 100 µM	> 100 µM	> 100 µM	> 100 µM	> 100 µM	> 100 µM	–	> 100 µM	> 100 µM	–	–	–	–	–	–	–	–	–	–	–
CN(C)CCCNC(=O)c1cccc2nc3ccccc3nc12	> 100 µM	> 100 µM	> 95.2 µM	> 77.4 µM	> 82.2 µM	> 82.4 µM	–	39.6 µM	39.8 µM	–	–	–	–	–	–	–	–	–	–	–
COc1ccc(/C=c2\sc3nnc(CCC(=O)Nc4cccc(C(F)(F)F)c4)n3c2=O)cc1	> 100 µM	> 100 µM	> 100 µM	> 100 µM	> 100 µM	> 100 µM	–	> 100 µM	> 100 µM	–	–	–	–	–	–	–	–	–	–	–
